The values below come from patent publication US20110038948A1, “Methods of Reducing the Production of Reactive Oxygen Species and Methods of Screening or Identifying Compounds and Compositions that Reduce the Production of Reactive Oxygen Species” (UNIVERSITY OF TENNESSEE RESEARCH FOUNDATION, priority 2005, published 2011).

Format in all cases: cell-based, mouse
In one assay the test system is adiponectin. Briefly: Adiponectin expression in 3T3-L1 adipocytes. The conditions noted are these: 48 h. The method, then:
3T3-L1 pre-adipocytes were incubated at a density of 8000 cells/cm^2 (10 cm^2 dish) and grown in Dulbecco's modified Eagle's medium (DMEM) containing 10% FBS and antibiotics (adipocyte medium) at 37° C. in 5% CO2 in air. Confluent pre-adipocytes were induced to differentiate with a standard differentiation medium consisting of DMEM-F10 (1:1, vol/vol) medium supplemented with 1% fetal bovine serum (FBS), 1 μM dexamethasone, isobutylmethylxanthine (IBMX) (0.5 mM) and antibiotics (1% Penicillin-Streptomycin). Pre-adipocytes were maintained in this differentiation medium for 3 days and subsequently cultured in adipocyte medium. Cultures were re-fed every 2-3 days to allow 90% cells to reach fully differentiation before conducting chemical treatment. […] Cell viability was measured via trypan blue exclusion. Adipocyte and muscle 18s, TNFα, IL-6, IL-8, IL-15 and adiponectin were quantitatively measured using a smart cycler real-time PCR system (Cepheid, Sunnyvale, Calif.) with a TaqMan 1000 Core Reagent Kit (Applied Biosystems, Branchburg, N.J.). […] Reactions of quantitative RT-PCR for standards and unknown samples were also performed according to the instructions of Smart Cycler System (Cepheid, Sunnyvale, Calif.) and TaqMan Real Time PCR Core Kit (Applied Biosystems, Branchburg, N.J.). The mRNA quantitation for each sample was further normalized using the corresponding 18s quantitation.

The test system of another assay is IL-6. Briefly: IL-6 expression in 3T3-L1 adipocytes. The method, then: 3T3-L1 pre-adipocytes were incubated at a density of 8000 cells/cm^2 (10 cm^2 dish) and grown in Dulbecco's modified Eagle's medium (DMEM) containing 10% FBS and antibiotics (adipocyte medium) at 37° C. in 5% CO2 in air. Confluent pre-adipocytes were induced to differentiate with a standard differentiation medium consisting of DMEM-F10 (1:1, vol/vol) medium supplemented with 1% fetal bovine serum (FBS), 1 μM dexamethasone, isobutylmethylxanthine (IBMX) (0.5 mM) and antibiotics (1% Penicillin-Streptomycin). Pre-adipocytes were maintained in this differentiation medium for 3 days and subsequently cultured in adipocyte medium. Cultures were re-fed every 2-3 days to allow 90% cells to reach fully differentiation before conducting chemical treatment.
Cells were incubated in serum free medium overnight before chemical treatment. Chemicals were freshly diluted in adipocyte medium before treatment. […] Cell viability was measured via trypan blue exclusion.
Adipocyte and muscle 18s, TNFα, IL-6, IL-8, IL-15 and adiponectin were quantitatively measured using a smart cycler real-time PCR system (Cepheid, Sunnyvale, Calif.) with a TaqMan 1000 Core Reagent Kit (Applied Biosystems, Branchburg, N.J.). […] Reactions of quantitative RT-PCR for standards and unknown samples were also performed according to the instructions of Smart Cycler System (Cepheid, Sunnyvale, Calif.) and TaqMan Real Time PCR Core Kit (Applied Biosystems, Branchburg, N.J.). The mRNA quantitation for each sample was further normalized using the corresponding 18s quantitation. […]
Adipocyte and muscle 18s, CD14, TNFα, MIP, M-CSF, IL-6 and MCP-1 were quantitatively measured using a Smart Cycler Real Time PCR System (Cepheid, Sunnyvale, Calif.) with a TaqMan 1000 Core Reagent Kit (Applied Biosystems, Branchburg, N.J.). […] Reactions of quantitative RT-PCR for standards and unknown samples were also performed according to the instructions of Smart Cycler System (Cepheid, Sunnyvale, Calif.) and TaqMan Real Time PCR Core Kit (Applied Biosystems, Branchburg, N.J.). […]

In another assay the test system is 3T3-L1 adipocytes. Briefly: Cell proliferation / DNA synthesis in cultured adipocytes (CyQUANT). The conditions noted are these: 48 hours. On the procedure: 3T3-L1 preadipocytes were incubated at a density of 8000 cells/cm^2 (10 cm^2 dish) and grown in Dulbecco's modified Eagle's medium (DMEM) containing 10% FBS and antibiotics (adipocyte medium) at 37° C. in 5% CO2 in air. Confluent preadipocytes were induced to differentiate with a standard differentiation medium consisting of DMEM-F10 (1:1, vol/vol) medium supplemented with 1% FBS, 1 μM dexamethasone, IBMX (0.5 mM) and antibiotics (1% Penicillin-Streptomycin). Preadipocytes were maintained in this differentiation medium for 3 days and subsequently cultured in adipocyte medium. Cultures were re-fed every 2-3 days to allow 90% of cells to reach full differentiation before conducting chemical treatment. Chemicals were freshly diluted in adipocyte medium before treatment. Cells were washed with fresh adipocyte medium, re-fed with medium containing the different treatments, and incubated at 37° C. in 5% CO2 in air before analysis. Cell viability was measured via trypan blue exclusion. Cells were plated in DMEM with different treatment in duplicate in 96-well plates. After 48 h, a CyQUANT Cell Proliferation Kit (Molecular Probes, Eugene, Oreg.) was used following the manufacturer's protocol. a microplate fluorometer (Packard Instrument Company, Inc., Downers Grove, Ill.) was used to measure CyQUANT fluorescence. Cell viability was determined by Trypan blue exclusion examination.

For `OO` [H2O2, hydrogen peroxide], in the assay with adiponectin, the “effect on adiponectin production” value was “without significant effect”. For the same molecule, the “increase in IL-6 expression” value in the assay on IL-6 (100 nmol/L H2O2, 48 h, p<0.001) was 167%. Besides, in the assay on 3T3-L1 adipocytes (H2O2 100 nmol/L, p<0.001), the “increase in total DNA of cultured cells” value is reported as 39%.

For the molecule `C=C1/C(=C\C=C2/CCC[C@]3(C)[C@@H]([C@H](C)CCCC(C)(C)O)CC[C@@H]23)C[C@@H](O)C[C@@H]1O` [calcitriol, 1,25-(OH)2-D3], the “effect on IL-6 expression” value in the assay with IL-6 (10 nmol/L 1α, 25-(OH)2-D3, 48 h) is listed as “markedly increased”; in the assay with IL-6 (calcitriol 10 nmol/L, 48 hours (Example 4)), “markedly stimulate”. Moreover, the “effect on glucose induced DNA synthesis” value in the assay with 3T3-L1 adipocytes (compound plus glucose 30 mmol/L) was “augmented”.
